Measured values reported in US20120136050A1, “USE OF A MELATONIN AGONIST FOR THE TREATMENT OF SLEEP DISORDERS INCLUDING PRIMARY INSOMNIA” (VANDA PHARMACEUTICALS INC., priority 2009, published 2012).

Legend:
[1] = tested on: patients with chronic primary insomnia; assay: Phase III placebo-controlled 4-week trial in chronic primary insomnia (PSG); assay type: in vivo, human; conditions: for fell asleep faster than placebo group (PSG): first night of treatment, p<0.001
Method: A phase III, multi-center, placebo-controlled, 4-week trial evaluated 322 patients with chronic primary insomnia. Patients were randomized to receive either 20 mg or 50 mg of Compound A or placebo over the course of four weeks. The primary endpoint consisted of the evaluation of the immediate and short-term (average of Nights 1 and 8) ability of Compound A to improve sleep onset as measured by Latency to Persistent Sleep (LPS) through polysomnography (PSG). Secondary endpoints evaluated Compound A's ability to maintain improvements on sleep onset after long-term (average of Nights 22 and 29) use of the compound as well as measures of sleep duration (Total Sleep Time, TST) and sleep maintenance (Wake After Sleep Onset, WASO). Patients were eligible for the study if symptoms of insomnia were chronic and LPS was greater than 30 minutes.

[2] = tested on: healthy male and female subjects with induced transient insomnia; assay: Example 2: single oral dose study in induced transient insomnia (PSG); assay type: in vivo, human
Method: A multi-center, randomized, double-blind, placebo-controlled, parallel-group study was conducted to investigate the efficacy and safety of single oral doses of VEC-162 (20 mg, 50 mg, and 100 mg) and matching placebo in healthy male and female subjects with induced transient insomnia. Approximately four hundred subjects were randomized in approximately a 1:1:1:1 ratio to the treatment groups.
In general, a screening period began 14 to 35 days prior to the start of the evaluation period, which was Day 1. Prior to Day 1, subjects were asked to increase their sleep time to 9 hours per night. Drug, or placebo, was administered on Night 1, approximately 0.5 hour prior to lights off.
The primary efficacy variable was LPS. LPS is defined as the length of time elapsed between lights off and onset of persistent sleep. In this trial, persistent sleep is defined as the point at which 10 minutes of uninterrupted sleep has begun. Sleep was determined on the basis of polysomnography (PSG).
Wake After Sleep Onset (WASO): WASO is defined as the time spent awake between onset of sleep and Lights On during Night 1, determined by PSG.
Latency to Non-Awake (LNA): LNA is defined as the number of minutes to reach any stage of sleep.
Total Sleep Time (TST): TST is defined as the number of minutes spent asleep during the entire time in bed.

[3] = tested on: elderly patients with primary insomnia; assay: 28-day Phase II study in elderly patients with primary insomnia; assay type: in vivo, human
Method: A 28-day Phase II study was also conducted to investigate the effects of Compound A in elderly patients with primary insomnia. […] While patients with the lowest melatonin levels ([…]) may have benefited from Compound A treatment more than placebo, the design of this study made it difficult to interpret the effects of Compound A on the sleep-wake cycle.

[4] = tested on: circadian sleep-wake cycle; assay: Clinical trial CN116-002, effects on the circadian sleep-wake cycle; assay type: in vivo, human; conditions: 50 mg
Method: The oral doses selected were based on safety and efficacy data obtained from previous Compound A pre-clinical and clinical trials. […] Though not optimally designed to assess the chronobiotic potential of Compound A, clinical trial CN116-002 measured the effects Compound A on the circadian sleep-wake cycle. […] The doses selected for the study (10 mg, 20 mg, 50 mg, and 100 mg) were within the expected dose range for efficacy. The safety of the selected doses for this study is supported by previous clinical studies. […] The highest dose in the study, 100 mg, is well within the safety margin established in both Phase I single and multiple ascending dose trials and in a Phase II study.

[5] = Plasma exposure after oral administration (Cmax, AUC); assay type: in vivo, human
[6] = Solubility in solvents and water; assay type: physicochemical
[7] = Particle size by laser diffraction (Malvern Mastersizer); assay type: physicochemical
Method: Particle size will also affect the dose selected. At larger particle sizes, i.e., D50 is greater than about 100 m, e.g., about 100 m to about 200 m oral doses at the higher end, i.e., up to about 100 mg are effective, whereas at smaller particle sizes, i.e., D50 is less than about 100 m, e.g., about 20 m to about 50 m, lower doses, i.e., less than about 100 mg, are useful, e.g., about 10 mg to about 80 mg and about 20 mg to about 50 mg. (Particle size measurements supporting the above were made laser diffraction using a Malvern Mastersizer. The D50 (D10, D90, D100) value means that 50% (10%, 90%, 100%) of the particles by weight are of the indicated diameter or smaller.) In one embodiment of the invention, the above doses are administered in immediate release form, i.e., a non-controlled release formulation.

[8] = 20 mg, Nights 1 and 8 vs baseline, p<0.001 vs placebo
[9] = 20 mg, Nights 22 and 29 vs baseline, nss
[10] = 20 mg, Nights 22 and 29 vs baseline, p<0.001 vs placebo
[11] = 50 mg, Nights 1 and 8 vs baseline, p<0.001 vs placebo
[12] = 50 mg, Nights 22 and 29 vs baseline, nss
[13] = 50 mg single oral dose, p<0.001
[14] = single oral dose, conclusion from Examples 1 and 2
[15] = material used in Example 1 study
[16] = material used in Example 2 study, material used in sleep latency study

## CCC(=O)NC[C@@H]1C[C@H]1c1cccc2c1CCO2 [Compound A, N-[[(1R,2R)-2-(2,3-dihydro-1-benzofuran-4-yl)cycloproply]methyl]propanamide]
[1]; 20 mg or 50 mg over four weeks
  tolerability and safety profile: well-tolerated and exhibited a safety profile generally similar to placebo
[1]; 20 mg, Nights 1 and 8 vs baseline, nss
  mean WASO improved by: 12.2 min
[1]; [8]
  mean LPS improved by: 45.0 min
  mean TST during the first third of the night improved by: 40.9 min
[1]; 20 mg, Nights 1 and 8 vs baseline, p<0.01 vs placebo
  mean WASO during the first third of the night improved by: 2.3 min
[1]; 20 mg, Nights 1 and 8 vs baseline, p=0.089 vs placebo
  mean TST improved by: 51.4 min
[1]; [9]
  mean WASO during the first third of the night improved by: 3.1 min
  mean WASO improved by: 17.7 min
[1]; [10]
  mean LPS improved by: 49.4 min
  mean TST during the first third of the night improved by: 45.2 min
[1]; 20 mg, Nights 22 and 29 vs baseline, p=0.057 vs placebo
  mean TST improved by: 60.3 min
[1]; 20 mg
  fell asleep faster than placebo group (PSG): 22.9 min
[1]; 50 mg, Nights 1 and 8 vs baseline, nss
  mean WASO improved by: 14.1 min
[1]; [11]
  mean LPS improved by: 46.4 min
  mean TST during the first third of the night improved by: 39.4 min
[1]; 50 mg, Nights 1 and 8 vs baseline, p<0.05 vs placebo
  mean WASO during the first third of the night improved by: 1.8 min
[1]; 50 mg, Nights 1 and 8 vs baseline, p=0.074 vs placebo
  mean TST improved by: 52.0 min
[1]; [12]
  mean WASO during the first third of the night improved by: 1.8 min
  mean WASO improved by: 10.2 min
[1]; 50 mg, Nights 22 and 29 vs baseline, nss vs placebo
  mean TST improved by: 48.6 min
[1]; 50 mg, Nights 22 and 29 vs baseline, p<0.01 vs placebo
  mean TST during the first third of the night improved by: 40.1 min
[1]; 50 mg, Nights 22 and 29 vs baseline, p=0.016 vs placebo
  mean LPS improved by: 45.1 min
[1]; 50 mg
  fell asleep faster than placebo group (PSG): 25.9 min
[2]; 20 mg single oral dose, p<0.001
  Latency to Persistent Sleep (LPS): Improvement compared with placebo: 21.5 min
[2]; 20 mg single oral dose, p<0.002
  Total Sleep Time (TST): Improvement compared with placebo: 33.7 min
[2]; 20 mg single oral dose, p<0.006
  Latency to Non-Awake (LNA): Improvement compared with placebo: 11.1 min
[2]; 20 mg single oral dose, p<0.02
  Wake After Sleep Onset (WASO): Improvement compared with placebo: 24.2 min
[2]; [13]
  Latency to Non-Awake (LNA): Improvement compared with placebo: 14.3 min
  Latency to Persistent Sleep (LPS): Improvement compared with placebo: 26.3 min
  Total Sleep Time (TST): Improvement compared with placebo: 47.9 min
[2]; 50 mg single oral dose, p=0.001
  Wake After Sleep Onset (WASO): Improvement compared with placebo: 33.7 min
[2]; 100 mg single oral dose, p<0.001
  Latency to Persistent Sleep (LPS): Improvement compared with placebo: 22.8 min
[2]; 100 mg single oral dose, p<0.002
  Latency to Non-Awake (LNA): Improvement compared with placebo: 12.3 min
[2]; 100 mg single oral dose, p<0.005
  Total Sleep Time (TST): Improvement compared with placebo: 29.6 min
[2]; 100 mg single oral dose, p=0.081
  Wake After Sleep Onset (WASO): Improvement compared with placebo: 17.5 min
[2]; all doses (20 mg, 50 mg, 100 mg)
  tolerability: well-tolerated
[2]; [14]
  efficacy of 20 mg relative to 100 mg: comparable or superior to 100 mg
  efficacy of 50 mg relative to 100 mg: more efficacious than 100 mg
[3]
  number of nocturnal awakenings versus placebo: did not differentiate from placebo
  sleep latency versus placebo: did not differentiate from placebo
[4]
  effect on circadian rhythms: consistently shifted circadian rhythms
[5]; age, weight, height, gender, creatinine clearance, or ALT baseline levels
  effect of covariates on exposure levels: not affected
[5]; oral doses 10 to 100 mg
  AUC increase with dose: approximately proportional to dose
  Cmax increase with dose: approximately proportional to the dose
[6]
  dependence of aqueous solubility on pH: practically unaffected by pH
[6]; 95% ethanol, methanol, acetonitrile, ethyl acetate, isopropanol, polyethylene glycols (PEG-300 and PEG-400)
  solubility in organic solvents: very soluble or freely soluble
[6]; saturated solution in water
  native pH of a saturated solution in water: 8.5
[6]; water
  solubility in water: only slightly soluble
[7]; [15]
  particle size D10: 10 µm
  particle size D50: 115 µm
  particle size D90: 316 µm
  particle size D100: 631 µm
[7]; [16]
  particle size D10: 5 µm
  particle size D50: 25 µm
  particle size D90: 72 µm
  particle size D100: 316 µm
